How the values were obtained:
[1] = system: Pan-02 cells xenograft tumors; assay: Pancreatic cancer xenograft model, anti-tumor activity; format: in vivo, nude mice; conditions: for Tumor Volume: 5 doses in 12 days, Pan-02 xenograft, mean ± SE
Experimental: In vivo studies: Materials and methods: Animals and cell lines: Healthy 8-10 week old nude mice of either sex, weighing between 20 g and 25 g were used as experimental animals for tumor induction. All animals were maintained under standardized animal house conditions (12 h light and 12 h dark condition) at controlled temperature (22±1° C.) and relative humidity (60-70%) in institutional registered animal house that was approved by Committee for the Purpose of Control and Supervision of Experiments on Animals (CPCSEA). They were maintained with standard pellet diet and water ad libitum. The institutional animal ethics committee approved the experimental protocol. CPCSEA guidelines were adhered to during the maintenance of animals and experiments. Pancreatic cancer cell line (Pan-02) was obtained from American Type Culture Collection and was cultured in RPMI medium.
(§1) Establishment of Pancreatic cancer xenograft model: To establish tumor in mice, Pan-02 cells (7×10^6) were suspended in 1:1 RPMI medium mixed with matrigel and subcutaneously implanted on right flank of the each mice. The injection sites were examined daily for the appearance of tumors. On 10th day these animals were randomized and divided into 3 groups (6 mice in each group). Group I served as control group received 20% ethanol three times in a week. Test group animals in Group II and III received intratumoral injection of IM-1372-Kn-13 at 10 mg and 25 mg/kg body weight respectively three times in a week. All groups received 5 repeated doses in 12 days. Mice were weighed and tumor volumes were measured 3 times a week by Vernier caliper. Tumor volume in individual mice was calculated by the following formula. 0.5×L (W)^2, Where L is length, W is width of the tumor. The control group animals were euthanized when tumor volume is reached heavier to animal. One-week after completion of treatment period, the animals were sacrificed, and tumors were excised, fixed, and embedded in paraffin. At the end of treatment, blood samples were collected to perform clinical biochemistry.

[2] = system: NIH3T3 cells; assay: In vitro anticancer activity, SRB assay, NIH3T3; format: cell-based
Experimental: (§2) In vitro anticancer activity: Cells were harvested from exponential phase cultures by trypsinization, counted and plated in 96-well plate. Optimal seeding densities for different cell lines in each plate were 5000 cells per well. After 24 h cells were treated with \ the newly synthesized compound at a dose range of 0.1-100 μm final concentration. Thereafter, cells were allowed to grow for 48 h before determination of cell survival by the SRB assay. Then the cells were fixed with 10% cold trichloroacetic acid for 1 h at 4° C. After two washes with deionized water, fixed cells were stained with 50 μL of SRB solution (1% in acetic acid) for 30 min and subsequently washed twice with 1% acetic acid to remove unbound stain. The plates were left to dry at room temperature and bound stain was solubilized with 100 μL of 10 mM buffered Tris base for reading the […] at 540 nm.

[3] = Acute toxicity test with histopathology
Experimental: Acute toxicity test: Safety tests begin with acute toxicity testing, where the animals are given a single dose of the test compound. The aim of the tests is to determine the range between the dose that causes no adverse effect and the dose that is life-threatening. […] Different doses (50, 25, 10, and 5 mg/kg body weight) of the test compound are given to the animals separately through IP injection. Post injection, the animals were monitored for the first 4 h and observed at every hourly interval for next 24 h. Further, animals were observed everyday for 14 days for any signs of toxic effects and behavior of animals. On day 14 all the surviving animals are sacrificed by a humane method and dissected to investigate signs of toxicity internally. […] If the drug is intended for the treatment of life-threatening diseases, toxicity is less of a concern than in a drug intended for use in healthy individuals.
Histopathological examination: For pathological studies, 5 μm sections of formalin-fixed, paraffin-embedded tissue were prepared and stained with haematoxylin and eosin. After haematoxylin-eosin (HE) staining, the slides were observed and the images were taken using optical microscope (Axioplan-II imaging). All slides were reviewed in a blinded fashion by a single pathologist and assessed for the presence of necrotic lesions (nodules) in the tumors and organs of different groups of mice.

[4] = Biochemical analysis of serum of tumor xenograft mice; format: in vivo, nude mice; conditions: for Albumin / Alkaline phosphatase / Creatinine / Glucose / SGOT / SGPT / Total protein / Urea: xenograft mice, mean ± SE
Experimental: as §1
Biochemical analysis: In acute toxicity experiment, blood samples were collected from all the animals 1 week after the last dose and mice were sacrificed by cervical decapitation. The obtained serum was analyzed in clinical chemistry for the assessment of liver function tests (LFT), activity of serum alkaline phosphatase (ALP), alanine aminotransferase (ALT), aspartate aminotransferase (AST), kidney function tests (RFT) (serum urea and creatinine). The same tests were performed for serum samples collected from three groups of tumor xenograft mice used for determining in vivo activity of test compound against pancreatic cancer. The measurement of these biochemical parameters was done in Clinical Biochemical analyzer (Tulip coralab 3000™).

[5] = system: A549 lung adenocarcinoma cell line; assay: In vitro anticancer activity, SRB assay, A549; format: cell-based; conditions: Homo sapiens, 48 h, NA = Not Active
Experimental: Cell culture: Human lung adenocarcinoma cell line (A549 cell line), pancreatic cancer cell line (Panc-1, Pan-02), prostate cancer cell line (DU145, PC3), Brest cancer cell line (MCF-7) was grown in DIEM (Dulbecco's modifications of eagle's medium with L-glutamine & 4.5 g/L glucose) supplemented with fetal bovine serum in a humidified atmosphere of a 5% CO2 at 37° C.
as §2

COC(=O)C[C@H]1[C@]2(C)C3=C(C)[C@H](C4=CC5OC4C(C(=O)OC)=C5C(=O)OC)C[C@@H]3O[C@@H]2[C@@H]2OC(=O)[C@]3(C)C=CC(=O)[C@@]1(C)C23 (some centres unmarked) [A4]
Tumor Volume ([1]; 10 mg/kg intratumoral, nude mice): 181.306 ± 12.7 mm^3
body weight and food intake ([1]; 10 mg/kg, 25 mg/kg body weight, intratumoral, nude mice): did not cause any loss in body weight and food intake
Tumor Volume ([1]; 25 mg/kg intratumoral, nude mice): 109.46 ± 7.1 mm^3
average volume of tumors compared to vehicle-treated animals ([1]; 10 and 25 mg/kg intratumoral, p<0.0001): significantly decreased
cytotoxic activity [2]: no activity was observed
organ histopathology ([3]; 25 mg/kg body weight): all organs including liver, kidney and spleen appeared normal
survival ([3]; 25 mg/kg, 10 mg/kg and 5 mg/kg): survived beyond the 24 h of observation
kidney histopathology ([3]; 50 mg/kg body weight): moderate capsular thickening and fibrosis in the renal capsules
liver histopathology ([3]; 50 mg/kg body weight): minor inflammation in the liver
adverse gastrointestinal effects ([3]; all the mice used in the experiment): no adverse gastrointestinal effects were observed
mortality ([3]; one mouse that received 50 mg/kg): died within 24 h
toxic effects in acute toxicity studies ([3]; up to 50 mg/kg): failed to show any toxic effects
serum total protein and albumin levels ([4]; group II and III compared to control group I): significantly increased
serum ALT, AST and ALP enzyme activities ([4]; treated xenograft groups vs elevated control group I): returned to normal
elevated levels of serum urea and creatinine ([4]; tumor-bearing mice, compared to group I): significantly fetched down
Albumin ([4]; 10 mg/kg): 3.16 ± 0.2 g/dL
Alkaline phosphatase ([4]; 10 mg/kg): 685.26 ± 28.8 U/L
Creatinine ([4]; 10 mg/kg): 1.56 ± 0.4 mg/dL
Glucose ([4]; 10 mg/kg): 77.60 ± 3.0 mg/dL
SGOT ([4]; 10 mg/kg): 56.12 ± 5.8 U/L
SGPT ([4]; 10 mg/kg): 47.05 ± 5.8 U/L
Total protein ([4]; 10 mg/kg): 6.24 ± 0.5 g/dL
Urea ([4]; 10 mg/kg): 46.81 ± 5.8 mg/dL
Albumin ([4]; 25 mg/kg): 3.61 ± 0.1 g/dL
Alkaline phosphatase ([4]; 25 mg/kg): 545.63 ± 24.9 U/L
Creatinine ([4]; 25 mg/kg): 0.80 ± 0.1 mg/dL
Glucose ([4]; 25 mg/kg): 108.42 ± 4.7 mg/dL
SGOT ([4]; 25 mg/kg): 32.20 ± 2.4 U/L
SGPT ([4]; 25 mg/kg): 24.49 ± 4.0 U/L
Total protein ([4]; 25 mg/kg): 8.05 ± 0.3 g/dL
Urea ([4]; 25 mg/kg): 41.23 ± 3.7 mg/dL
IC50 [5]: 4.54 µM
